Laboratory results taken from patent publication US6054435A, “6-O-substituted macrolides having antibacterial activity” (priority 1999, dated 2000).
≈ marks a conversion by molar mass, not a printed value.

What was measured:
Assay in all cases: in vitro antibacterial activity (MIC), agar dilution
Format in all cases: cell-based
Candida albicans CCH 442 = settings: organism code TT; BHI agar, 35-37° C., 20 to 24 hours; unit assumed
Description: (§1) Representative compounds of the present invention were assayed in vitro for antibacterial activity as follows: Twelve petri dishes containing successive aqueous dilutions of the test compound mixed with 10 mL of sterilized Brain Heart Infusion (BHI) agar (Difco 0418-01-5) were prepared. Each plate was inoculated with 1:100 (or 1:10 for slow-growing strains, such as Micrococcus and Streptococcus) dilutions of up to 32 different microorganisms, using a Steers replicator block. […] In addition, a control plate, using BHI agar containing no test compound, was prepared and incubated at the beginning and end of each test.
(§2) An additional plate containing a compound having known susceptibility patterns for the organisms being tested and belonging to the same antibiotic class as the test compound was also prepared and incubated as a further control, as well as to provide test-to-test comparability.
(§3) After incubation, each plate was visually inspected. The minimum inhibitory concentration (MIC) was defined as the lowest concentration of drug yielding no growth, a slight haze, or sparsely isolated colonies on the inoculum spot as compared to the growth control.

[1] = tested on: Enterococcus faecium ATCC 8043; settings: organism code II; BHI agar, 35-37° C., 20 to 24 hours; unit assumed
Description: as §1, §2, §3

Escherichia coli DC-2 = settings: organism code SS; BHI agar, 35-37° C., 20 to 24 hours; unit assumed
Description: as §1, §2, §3

Escherichia coli JUHL = settings: organism code QQ; BHI agar, 35-37° C., 20 to 24 hours; unit assumed
Description: as §1, §2, §3

Escherichia coli SS = settings: organism code RR; BHI agar, 35-37° C., 20 to 24 hours; unit assumed
Description: as §1, §2, §3

[2] = tested on: Haemophilis Influenzae DILL AMP R; settings: organism code WW; BHI agar, 35-37° C., 20 to 24 hours; unit assumed
Description: as §1, §2, §3

[3] = tested on: Micrococcus luteus ATCC 4698; settings: organism code PP; BHI agar, 35-37° C., 20 to 24 hours; unit assumed
Description: as §1, §2, §3

[4] = tested on: Micrococcus luteus ATCC 9341; settings: organism code OO; BHI agar, 35-37° C., 20 to 24 hours; unit assumed
Description: as §1, §2, §3

[5] = tested on: Mycobacterium smegmatis ATCC 114; settings: organism code UU; BHI agar, 35-37° C., 20 to 24 hours; unit assumed
Description: as §1, §2, §3

[6] = tested on: Nocardia Asteroides ATCC9970; settings: organism code VV; BHI agar, 35-37° C., 20 to 24 hours; unit assumed
Description: as §1, §2, §3

[7] = tested on: Staphylococcus aureus 1775; settings: organism code GG; BHI agar, 35-37° C., 20 to 24 hours; unit assumed
Description: as §1, §2, §3

[8] = tested on: Staphylococcus aureus A-5278; settings: organism code CC; BHI agar, 35-37° C., 20 to 24 hours; unit assumed
Description: as §1, §2, §3

[9] = tested on: Staphylococcus aureus A5177; settings: organism code BB; BHI agar, 35-37° C., 20 to 24 hours; unit assumed
Description: as §1, §2, §3

[10] = tested on: Staphylococcus aureus ATCC 6538P; settings: organism code AA; BHI agar, 35-37° C., 20 to 24 hours; unit assumed
Description: as §1, §2, §3

[11] = tested on: Staphylococcus aureus CMX 553; settings: organism code FF; BHI agar, 35-37° C., 20 to 24 hours; unit assumed
Description: as §1, §2, §3

[12] = tested on: Staphylococcus aureus CMX 642A; settings: organism code DD; BHI agar, 35-37° C., 20 to 24 hours; unit assumed
Description: as §1, §2, §3

[13] = tested on: Staphylococcus aureus NCTC10649M; settings: organism code EE; BHI agar, 35-37° C., 20 to 24 hours; unit assumed
Description: as §1, §2, §3

[14] = tested on: Staphylococcus epidermidis 3519; settings: organism code HH; BHI agar, 35-37° C., 20 to 24 hours; unit assumed
Description: as §1, §2, §3

[15] = tested on: Streptococcus Pneumonia 5979; settings: organism code ZZ; BHI agar, 35-37° C., 20 to 24 hours; unit assumed
Description: as §1, §2, §3

[16] = tested on: Streptococcus Pneumonia ATCC6303; settings: organism code XX; BHI agar, 35-37° C., 20 to 24 hours; unit assumed
Description: as §1, §2, §3

[17] = tested on: Streptococcus Pneumonia GYR 1171; settings: organism code YY; BHI agar, 35-37° C., 20 to 24 hours; unit assumed
Description: as §1, §2, §3

[18] = tested on: Streptococcus agalactiae CMX 508; settings: organism code KK; BHI agar, 35-37° C., 20 to 24 hours; unit assumed
Description: as §1, §2, §3

[19] = tested on: Streptococcus bovis A-5169; settings: organism code JJ; BHI agar, 35-37° C., 20 to 24 hours; unit assumed
Description: as §1, §2, §3

[20] = tested on: Streptococcus pyogenes 930; settings: organism code MM; BHI agar, 35-37° C., 20 to 24 hours; unit assumed
Description: as §1, §2, §3

[21] = tested on: Streptococcus pyogenes EES61; settings: organism code LL; BHI agar, 35-37° C., 20 to 24 hours; unit assumed
Description: as §1, §2, §3

[22] = tested on: Streptococcus pyogenes PIU 2548; settings: organism code NN; BHI agar, 35-37° C., 20 to 24 hours; unit assumed
Description: as §1, §2, §3

[23] = tested on: Streptococcus Pneumonia 5649; settings: organism code ZZA; BHI agar, 35-37° C., 20 to 24 hours; unit assumed
Description: as §1, §2, §3

CC[C@H]1OC(=O)[C@H](C)C(=O)[C@H](C)[C@@H](O[C@@H]2O[C@H](C)C[C@H](N(C)C)[C@H]2O)[C@](C)(OC/C=C/c2cncc(-c3cncnc3)c2)C[C@@H](C)C(=O)[C@H](C)[C@H]2NC(=O)O[C@@]21C [Example 45]
MIC (Candida albicans CCH 442): > 100 µg/mL
MIC [1]: 0.05 µg/mL (≈ 0.063 µM)
MIC (Escherichia coli DC-2): 25 µg/mL (≈ 31.5 µM)
MIC (Escherichia coli JUHL): 50 µg/mL (≈ 63 µM)
MIC (Escherichia coli SS): 0.39 µg/mL (≈ 0.491 µM)
MIC [2]: 2 µg/mL (≈ 2.52 µM)
MIC [3]: 0.1 µg/mL (≈ 0.126 µM)
MIC [4]: 0.01 µg/mL (≈ 0.0126 µM)
MIC [5]: 1.56 µg/mL (≈ 1.96 µM)
MIC [6]: 0.05 µg/mL (≈ 0.063 µM)
MIC [7]: > 100 µg/mL
MIC [8]: > 100 µg/mL
MIC [9]: 0.05 µg/mL (≈ 0.063 µM)
MIC [10]: 0.05 µg/mL (≈ 0.063 µM)
MIC [11]: 0.05 µg/mL (≈ 0.063 µM)
MIC [12]: 0.1 µg/mL (≈ 0.126 µM)
MIC [13]: 0.2 µg/mL (≈ 0.252 µM)
MIC [14]: 0.1 µg/mL (≈ 0.126 µM)
MIC [15]: > 128 µg/mL
MIC [16]: 0.008 µg/mL (≈ 0.0101 µM)
MIC [17]: ≤ 0.004 µg/mL
MIC [18]: ≤ 0.005 µg/mL
MIC [19]: ≤ 0.005 µg/mL
MIC [20]: 25 µg/mL (≈ 31.5 µM)
MIC [21]: ≤ 0.005 µg/mL
MIC [22]: 0.39 µg/mL (≈ 0.491 µM)

CC[C@H]1OC(=O)[C@H](C)C(=O)[C@H](C)[C@@H](O[C@@H]2O[C@H](C)C[C@H](N(C)C)[C@H]2O)[C@](C)(OC/C=C/c2ccc(-c3ccncn3)s2)C[C@@H](C)C(=O)[C@H](C)[C@H]2NC(=O)O[C@@]21C [Example 64]
MIC (Candida albicans CCH 442): > 100 µg/mL
MIC (Escherichia coli JUHL): 50 µg/mL (≈ 62.6 µM)
MIC (Escherichia coli SS): 0.39 µg/mL (≈ 0.488 µM)
MIC [2]: 2 µg/mL (≈ 2.5 µM)
MIC [3]: 0.2 µg/mL (≈ 0.25 µM)
MIC [5]: 0.78 µg/mL (≈ 0.976 µM)
MIC [6]: 0.01 µg/mL (≈ 0.0125 µM)
MIC [7]: > 100 µg/mL
MIC [8]: > 100 µg/mL
MIC [9]: 0.05 µg/mL (≈ 0.0626 µM)
MIC [10]: 0.05 µg/mL (≈ 0.0626 µM)
MIC [13]: 0.05 µg/mL (≈ 0.0626 µM)
MIC [14]: 0.05 µg/mL (≈ 0.0626 µM)
MIC [23]: 0.25 µg/mL (≈ 0.313 µM)
MIC [15]: 2 µg/mL (≈ 2.5 µM)
MIC [16]: ≤ 0.004 µg/mL
MIC [17]: ≤ 0.004 µg/mL
MIC [18]: 0.02 µg/mL (≈ 0.025 µM)
MIC [19]: ≤ 0.005 µg/mL
MIC [20]: 3.1 µg/mL (≈ 3.88 µM)
MIC [21]: 0.01 µg/mL (≈ 0.0125 µM)
MIC [22]: 0.1 µg/mL (≈ 0.125 µM)
